The record followed here is PMC8216447, “Factors affecting the buccal delivery of deformable nanovesicles based on insulin–phospholipid complex: an in vivo investigation” (Drug Delivery, 2020).

For the experiment, the system named is normal rabbits. Put plainly: In vivo hypoglycemic effect, rabbit esophageal ligation model. The following applies: insulin solution 3 mg/mL. On the procedure:
The relative pharmacological bioactivity of insulin delivered via the transmucosal route by IPC-DNVs in different drug doses, delivery sites, ligation times, drug concentrations, sizes, and deformabilities was evaluated in normal rabbits by assessing the hypoglycemic effects. […] After fasting for 2 h, the rabbits were weighed and anesthetized with pentobarbital (2%, 50 mg/kg) through the ear margin vein. During anesthesia, the animals were restrained in a supine position to a board. The esophagus was surgically ligated to prevent swallowing. The drug solution for buccal administration (oral mucosa) was divided into four parts; two parts for administration via sublingual mucosa, and two parts for administration via left and right buccal mucosa. The sublingual mucosa and the buccal mucosa groups were administered only to the sublingual mucosa or buccal mucosa. After administration of the drug solution for 30 min (except the group with ligation time of 15 min), the esophagus was untied, and the response of the animals was observed. Blood samples were collected from the ear veins at predetermined time intervals (0, 0.5, 1, 1.5, 2, 2.5, 3, 3.5, 4, 4.5, 5, and 6 h) after DNVs administration and blood glucose levels were measured using a Blood Analyzer (ONETOUCH Ultra; Johnson & Johnson, New Brunswick, NJ, USA). […]

Regarding “Recombinant human insulin [insulin solution]”, the hypoglycemic effect entry (1 IU/kg, subcutaneous administration) is recorded as “evident”. The “glucose levels within 6 h after buccal administration” value (10 IU/kg, buccal administration (control)) is reported as “barely changed”.
